Assay type in all cases: biochemical
Test [1] deals with T1, JAK3 (Homo sapiens, UniProt P52333).
T1 sequence (P52333 1-1124): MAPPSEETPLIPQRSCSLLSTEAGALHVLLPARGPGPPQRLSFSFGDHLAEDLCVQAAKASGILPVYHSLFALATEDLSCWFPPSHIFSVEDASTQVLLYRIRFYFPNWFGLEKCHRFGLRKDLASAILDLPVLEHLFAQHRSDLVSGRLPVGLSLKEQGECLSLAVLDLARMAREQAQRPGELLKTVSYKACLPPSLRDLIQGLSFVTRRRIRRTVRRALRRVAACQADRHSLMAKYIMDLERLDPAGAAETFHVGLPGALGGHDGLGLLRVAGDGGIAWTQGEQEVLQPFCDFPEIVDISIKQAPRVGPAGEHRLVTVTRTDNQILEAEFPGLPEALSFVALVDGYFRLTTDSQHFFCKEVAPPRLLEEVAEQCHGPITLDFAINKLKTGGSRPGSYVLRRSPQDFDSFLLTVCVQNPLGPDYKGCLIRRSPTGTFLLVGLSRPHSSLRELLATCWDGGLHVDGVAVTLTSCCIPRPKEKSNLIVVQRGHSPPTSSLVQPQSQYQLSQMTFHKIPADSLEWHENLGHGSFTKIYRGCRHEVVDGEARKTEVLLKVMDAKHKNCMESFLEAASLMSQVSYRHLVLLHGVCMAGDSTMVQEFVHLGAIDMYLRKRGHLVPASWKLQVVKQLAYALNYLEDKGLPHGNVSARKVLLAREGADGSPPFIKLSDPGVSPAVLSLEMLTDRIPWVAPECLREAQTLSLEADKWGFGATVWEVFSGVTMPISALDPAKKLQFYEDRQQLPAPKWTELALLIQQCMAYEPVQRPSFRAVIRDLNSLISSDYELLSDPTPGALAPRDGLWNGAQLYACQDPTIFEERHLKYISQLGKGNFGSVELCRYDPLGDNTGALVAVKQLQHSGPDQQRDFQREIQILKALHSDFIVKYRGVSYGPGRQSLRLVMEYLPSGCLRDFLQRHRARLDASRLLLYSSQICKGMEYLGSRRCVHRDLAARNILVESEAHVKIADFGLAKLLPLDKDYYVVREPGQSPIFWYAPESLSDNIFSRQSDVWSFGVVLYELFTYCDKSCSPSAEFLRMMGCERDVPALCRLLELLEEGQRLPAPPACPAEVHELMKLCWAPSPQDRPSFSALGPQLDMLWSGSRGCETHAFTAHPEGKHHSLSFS
Kind of test: JAK kinase activity, homogeneous time-resolved fluorescence (JAK3 reaction system). The note with it: ATP 2 μM, JAK3 protein 0.04 ng/μL; read-out: JAK 3 activity.

The target of test [2] is JAK2 (Homo sapiens, UniProt O60674). Kind of test: JAK kinase activity, homogeneous time-resolved fluorescence (JAK2 reaction system). The note with it: ATP 2 μM, JAK2 protein 0.01 ng/μL. A digest of the protocol: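 IC50 derived by Hill-equation fit of the 665/615 nm time-resolved fluorescence ratio after EDTA-containing detection mix with anti-phosphosubstrate antibody. Preceding 1 h reaction contained 2 μM ATP, 0.01 ng/μL JAK2, substrate, 50 mM Hepes pH 7.0, 5 mM MgCl2, 1 mM DTT.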

In test [3] the target is JAK1 (Homo sapiens, UniProt P23458). Kind of test: JAK kinase activity, homogeneous time-resolved fluorescence (JAK1 reaction system). The note with it: ATP 2 μM, JAK1 protein 0.2 ng/μL; read-out: JAK 1 activity. A digest of the protocol: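 Kinase activity read as the 665 nm/615 nm time-resolved fluorescence ratio (320 nm excitation) after EDTA-containing antibody and XL-615 addition. Reaction ran 1 h at pH 7.0 (Hepes, MgCl2, DTT) with 0.2 ng/μL JAK1 and ATP at 2 μM. IC50 derived by Hill-slope fit.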

Test [4] has as its target TYK2 (Homo sapiens, UniProt P29597). Kind of test: JAK kinase activity, homogeneous time-resolved fluorescence (TYK2 reaction system). The following applies: ATP 2 μM, TYK2 protein 0.2 ng/μL; read-out: TYK 2 activity. A digest of the protocol:
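Activity read as the 665 nm/615 nm ratio after adding EDTA-containing detection mix with anti-phospho-substrate antibody and XL-615. Beforehand, 0.2 ng/μL TYK2, 2 μM ATP, substrate and compound reacted 1 h in pH 7.0 Hepes buffer with MgCl2 and DTT. IC50 fitted with Hill-slope equation.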

Each structure is given as a SMILES string.

JAK1, sequence (P23458 whole entry): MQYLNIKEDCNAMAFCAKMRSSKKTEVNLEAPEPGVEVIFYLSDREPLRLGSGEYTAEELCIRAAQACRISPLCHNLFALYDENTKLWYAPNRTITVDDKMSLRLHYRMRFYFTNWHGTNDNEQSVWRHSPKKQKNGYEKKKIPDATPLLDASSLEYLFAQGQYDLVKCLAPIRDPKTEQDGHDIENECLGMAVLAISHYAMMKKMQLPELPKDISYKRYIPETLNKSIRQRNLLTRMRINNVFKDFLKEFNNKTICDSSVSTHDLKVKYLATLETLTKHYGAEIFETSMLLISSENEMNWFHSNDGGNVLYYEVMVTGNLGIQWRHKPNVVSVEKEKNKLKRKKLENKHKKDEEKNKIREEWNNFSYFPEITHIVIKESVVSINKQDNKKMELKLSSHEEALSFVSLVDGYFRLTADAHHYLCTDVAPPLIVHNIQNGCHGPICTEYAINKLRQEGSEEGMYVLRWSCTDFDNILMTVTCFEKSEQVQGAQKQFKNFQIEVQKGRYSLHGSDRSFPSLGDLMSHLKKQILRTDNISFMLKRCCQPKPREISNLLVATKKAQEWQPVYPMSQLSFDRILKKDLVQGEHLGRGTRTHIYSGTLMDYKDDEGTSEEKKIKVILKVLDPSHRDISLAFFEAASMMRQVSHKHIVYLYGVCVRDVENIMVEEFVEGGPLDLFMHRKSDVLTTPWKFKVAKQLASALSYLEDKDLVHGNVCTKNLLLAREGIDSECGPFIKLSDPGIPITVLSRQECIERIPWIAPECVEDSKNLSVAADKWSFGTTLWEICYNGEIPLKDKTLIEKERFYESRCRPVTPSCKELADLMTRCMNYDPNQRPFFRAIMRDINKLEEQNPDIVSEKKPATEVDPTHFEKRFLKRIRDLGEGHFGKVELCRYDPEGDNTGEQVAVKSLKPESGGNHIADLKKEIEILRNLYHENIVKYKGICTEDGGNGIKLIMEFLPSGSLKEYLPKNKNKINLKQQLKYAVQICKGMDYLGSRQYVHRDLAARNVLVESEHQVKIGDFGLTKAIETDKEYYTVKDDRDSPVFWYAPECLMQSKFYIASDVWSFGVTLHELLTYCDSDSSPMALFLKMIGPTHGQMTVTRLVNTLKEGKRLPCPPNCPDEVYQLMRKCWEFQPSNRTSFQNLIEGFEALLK
TYK2, sequence (P29597 whole entry): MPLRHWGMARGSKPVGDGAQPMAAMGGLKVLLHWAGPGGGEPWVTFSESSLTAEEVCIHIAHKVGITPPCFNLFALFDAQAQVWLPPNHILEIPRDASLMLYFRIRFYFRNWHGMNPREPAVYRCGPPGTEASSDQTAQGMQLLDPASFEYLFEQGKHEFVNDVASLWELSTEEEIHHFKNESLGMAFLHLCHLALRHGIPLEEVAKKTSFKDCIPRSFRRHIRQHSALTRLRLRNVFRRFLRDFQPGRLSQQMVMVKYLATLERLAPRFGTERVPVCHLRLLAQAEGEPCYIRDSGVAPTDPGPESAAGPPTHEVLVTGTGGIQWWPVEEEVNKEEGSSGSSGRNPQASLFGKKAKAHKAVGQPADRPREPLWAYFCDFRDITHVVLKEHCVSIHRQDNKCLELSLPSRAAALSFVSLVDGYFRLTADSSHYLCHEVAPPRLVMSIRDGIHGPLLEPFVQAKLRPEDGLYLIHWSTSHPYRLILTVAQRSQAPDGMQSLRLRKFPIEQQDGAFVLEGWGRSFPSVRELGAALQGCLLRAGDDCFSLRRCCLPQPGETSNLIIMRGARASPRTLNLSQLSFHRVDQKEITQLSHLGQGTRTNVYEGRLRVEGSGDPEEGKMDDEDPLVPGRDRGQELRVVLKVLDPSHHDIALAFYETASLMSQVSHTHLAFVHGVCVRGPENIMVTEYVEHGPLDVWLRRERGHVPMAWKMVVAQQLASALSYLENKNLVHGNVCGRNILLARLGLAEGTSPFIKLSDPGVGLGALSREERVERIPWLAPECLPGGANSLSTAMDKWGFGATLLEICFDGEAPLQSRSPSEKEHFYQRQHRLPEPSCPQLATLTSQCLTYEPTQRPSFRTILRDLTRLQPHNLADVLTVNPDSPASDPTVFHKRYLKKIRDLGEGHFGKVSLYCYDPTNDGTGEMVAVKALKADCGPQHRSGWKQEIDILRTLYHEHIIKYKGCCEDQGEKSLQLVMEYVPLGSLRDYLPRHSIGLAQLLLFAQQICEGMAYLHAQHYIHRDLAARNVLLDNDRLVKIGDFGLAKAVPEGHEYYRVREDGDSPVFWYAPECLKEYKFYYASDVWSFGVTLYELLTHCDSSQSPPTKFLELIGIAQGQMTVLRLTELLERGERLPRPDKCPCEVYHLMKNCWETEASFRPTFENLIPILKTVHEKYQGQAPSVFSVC
JAK2, sequence (O60674 whole entry): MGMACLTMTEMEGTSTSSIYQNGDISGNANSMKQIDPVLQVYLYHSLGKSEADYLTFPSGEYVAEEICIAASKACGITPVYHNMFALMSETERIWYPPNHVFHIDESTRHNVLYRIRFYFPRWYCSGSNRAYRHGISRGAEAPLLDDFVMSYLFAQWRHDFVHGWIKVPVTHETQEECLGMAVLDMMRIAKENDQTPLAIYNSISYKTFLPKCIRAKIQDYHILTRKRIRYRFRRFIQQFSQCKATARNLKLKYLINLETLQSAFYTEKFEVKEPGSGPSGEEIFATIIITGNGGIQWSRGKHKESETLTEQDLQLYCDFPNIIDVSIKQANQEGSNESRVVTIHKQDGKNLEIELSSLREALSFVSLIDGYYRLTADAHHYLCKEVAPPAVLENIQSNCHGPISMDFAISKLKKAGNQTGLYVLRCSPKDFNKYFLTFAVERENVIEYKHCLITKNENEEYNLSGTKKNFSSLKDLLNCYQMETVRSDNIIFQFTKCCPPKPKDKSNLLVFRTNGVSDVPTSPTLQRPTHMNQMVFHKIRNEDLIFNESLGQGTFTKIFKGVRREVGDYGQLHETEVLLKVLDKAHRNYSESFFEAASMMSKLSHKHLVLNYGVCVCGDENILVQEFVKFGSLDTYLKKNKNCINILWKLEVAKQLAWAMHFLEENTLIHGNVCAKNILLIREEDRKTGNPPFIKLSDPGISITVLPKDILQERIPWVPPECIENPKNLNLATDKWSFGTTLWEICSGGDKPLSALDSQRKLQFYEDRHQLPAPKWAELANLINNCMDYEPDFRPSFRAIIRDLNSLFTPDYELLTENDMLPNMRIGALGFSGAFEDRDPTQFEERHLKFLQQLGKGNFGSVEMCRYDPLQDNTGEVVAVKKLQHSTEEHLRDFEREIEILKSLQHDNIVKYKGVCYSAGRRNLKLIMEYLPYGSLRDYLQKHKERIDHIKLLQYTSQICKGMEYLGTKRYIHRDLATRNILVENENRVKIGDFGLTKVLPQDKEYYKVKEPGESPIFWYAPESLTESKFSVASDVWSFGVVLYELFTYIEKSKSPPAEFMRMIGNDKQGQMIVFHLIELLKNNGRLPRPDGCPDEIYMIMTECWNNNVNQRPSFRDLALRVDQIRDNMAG

In the case of `Nc1cc2ccc1-c1ccnc(n1)Nc1ccc(Oc3cnc4[nH]ccc4c3)c(c1)COCCCCNC2=O` [Example 161, 4^4-((1H-pyrrolo[2,3-b]pyridin-5-yl)oxy)-1^2-amino-6-oxa-3,11-diaza-2(4,2)-pyrimidina-1(1,4),4(1,3)-di-benzenacyclododecaphan-12-one], the IC50 in test [1] is 1000 to 10000 nM; in test [2], 1000 to 10000 nM; in test [3] it was 1000 to 10000 nM; in test [4], over 10000 nM.
With `CC1CCOCc2cc(ccc2OC2CCCOC2)Nc2nccc(n2)-c2ccc(cc2[N+](=O)[O-])C(=O)NC1` (stereo not shown) [Example 162, 9-methyl-1^2-nitro-4^4-((tetrahydro-2H-pyran-3-yl)oxy)-6-oxa-3,11-di-aza-2(4,2)-pyrimidina-1(1,4),4(1,3)-dibenzenacyclododecaphan-12-one], the IC50 was in the range of 101 to 1000 nM in test [1], 101 to 1000 nM in test [2], 1000 to 10000 nM in test [3] and 1000 to 10000 nM in test [4].
As for `O=C1NCCCCOCc2cc(ccc2OCC2COC2)Nc2nccc(n2)-c2ccc1cc2[N+](=O)[O-]` [Example 163, 1^2-nitro-4^4-(oxetan-3-ylmethoxy)-6-oxa-3,11-diaza-2(4,2)-pyrimidina-1(1,4),4(1,3)-dibenzenacyclo-dodecaphan-12-one], the IC50 was 1000 to 10000 nM in test [1], 1000 to 10000 nM in test [2], 1000 to 10000 nM in test [3] and over 10000 nM in test [4].
Take `Nc1cc2ccc1-c1ccnc(n1)Nc1ccc(OCC3COC3)c(c1)COCCCCNC2=O` [Example 164, 1^2-amino-4^4-(oxetan-3-ylmethoxy)-6-oxa-3-diaza-2(4,2)-pyrimidina-1(1,4),4(1,3)-dibenzenacyclo-dodecaphan-12-one]: the IC50 is 11 to 100 nM in test [1], 101 to 1000 nM in test [2], 1000 to 10000 nM in test [3] and 1000 to 10000 nM in test [4].
With `CC1CCOCc2cc(ccc2OC2CCCOC2)Nc2nccc(n2)-c2ccc(cc2N)C(=O)NC1` (stereo not shown) [Example 165, 1^2-amino-9-methyl-4^4-((tetrahydro-2H-pyran-3-yl)oxy)-6-oxa-3,11-di-aza-2(4,2)-pyrimidina-1(1,4),4(1,3)-dibenzenacyclododecaphan-12-one], the IC50 in test [1] was under 10 nM; in test [2] it was 11 to 100 nM; in test [3], 101 to 1000 nM; in test [4], 101 to 1000 nM.
As for `CC1CCOCc2cc(ccc2OCC2CCOC2)Nc2nccc(n2)-c2ccc(cc2[N+](=O)[O-])C(=O)NC1` (stereo not shown) [Example 166, 9-methyl-1^2-nitro-4^4-((tetrahydro-furan-3-yl)methoxy)-6-oxa-3,11-di-aza-2(4,2)-pyrimidina-1(1,4),4(1,3)-dibenzenacyclododecaphan-12-one], the IC50 was 101 to 1000 nM in test [1], 1000 to 10000 nM in test [2], 1000 to 10000 nM in test [3] and over 10000 nM in test [4].
Consider `CC1CCOCc2cc(ccc2OCC2CCOC2)Nc2nccc(n2)-c2ccc(cc2N)C(=O)NC1` (stereo not shown) [Example 167, 1-amino-9-methyl-4^4-((tetahydro-furan-3-yl)methoxy)-6-oxa-3,11-diaza-2(4,2)-pyrimidina-1(1,4),4(1,3)-dibenzenacyclododecaphan-12-one], for which the IC50 in test [1] is under 10 nM; in test [2], 101 to 1000 nM; in test [3] it was 101 to 1000 nM; in test [4] it was 101 to 1000 nM.
For the compound `CC1(C)CCNC(=O)c2ccc(c(N)c2)-c2ccnc(n2)Nc2ccc(OC3CCCOC3)c(c2)COC1` (stereo not shown) [Example 168, 1^2-amino-8,8-dimethyl-4^4-((tetra-hydro-2H-pyran-3-yl)oxy)-6-oxa-3,11-diaza-2(4,2)-pyrimidina-1(1,4),4(1,3)-dibenzenacyclododecaphan-12-one], the IC50 in test [1] is 1000 to 10000 nM; in test [2], 1000 to 10000 nM; in test [3], over 10000 nM; in test [4] it was over 10000 nM.
With `CC1CCOCc2cc(ccc2OCC2CCCC2)Nc2nccc(n2)-c2ccc(cc2N)C(=O)NC1` (stereo not shown) [Example 169, 1^2-amino-4^4-(cyclopentylmethoxy)-9-methyl-6-oxa-3,11-diaza-2(4,2)-pyrimidina-1(1,4),4(1,3)-dibenzena-cyclododecaphan-12-one], the IC50 in test [1] fell in the range of 11 to 100 nM; in test [2], 101 to 1000 nM; in test [3], 1000 to 10000 nM; in test [4], 1000 to 10000 nM.
`CC1(C)CCOCc2cc(ccc2OC2CCCOC2)Nc2nccc(n2)-c2ccc(cc2N)C(=O)NC1` (stereo not shown) [Example 170, 1^2-amino-9,9-dimethyl-4^4-((tetra-hydroxy-2H-pyran-3-yl)oxy)-6-oxa-3,11-diaza-2(4,2)-pyrimidina-1(1,4),4(1,3)-dibenzenacyclododecaphan-12-one]: the IC50 fell in the range of 101 to 1000 nM in test [1], 1000 to 10000 nM in test [2], 1000 to 10000 nM in test [3] and 1000 to 10000 nM in test [4].
With `COc1cccc(F)c1COc1ccc2cc1COCCCCNC(=O)c1ccc(c([N+](=O)[O-])c1)-c1ccnc(n1)N2` [Example 171, 4^4-((2-fluoro-6-methoxybenzyl)oxy)-1^2-nitro-6-oxa-3,11-diaza-2(4,2)-pyrimidina-1(1,4),4(1,3)-di-benzenacyclododecaphan-12-one], the IC50 in test [1] was 1000 to 10000 nM; in test [2] it was 1000 to 10000 nM; in test [3], 1000 to 10000 nM; in test [4], over 10000 nM.
Turning to `COc1cccc(F)c1COc1ccc2cc1COCCCCNC(=O)c1ccc(c(N)c1)-c1ccnc(n1)N2` [Example 172, 1^2-amino-4^4-((2-fluoro-6-methoxy-benzyl)oxy)-6-oxa-3,11-diaza-2(4,2)-pyrimidina-1(1,4),4(1,3)-di-benzenacyclododecaphan-12-one], the IC50 in test [1] fell in the range of 11 to 100 nM; in test [2], 101 to 1000 nM; in test [3], 1000 to 10000 nM; in test [4], 1000 to 10000 nM.
For the compound `COc1cc(F)ccc1COc1ccc2cc1COCCCCNC(=O)c1ccc(c(N)c1)-c1ccnc(n1)N2` [Example 173, 1^2-amino-4^4-((4-fluoro-2-methoxy-benzyl)oxy)-6-oxa-3,11-diaza-2(4,2)-pyrimidina-1(1,4),4(1,3)-di-benzenacyclododecaphan-12-one], the IC50 in test [1] was in the range of 11 to 100 nM; in test [2], 101 to 1000 nM; in test [3], 1000 to 10000 nM; in test [4], 1000 to 10000 nM.
Consider `CC1CCNC(=O)c2ccc(c([N+](=O)[O-])c2)-c2ccnc(n2)Nc2ccc(OCC3COC3)c(c2)COC1` (stereo not shown) [Example 174, 8-methyl-1^2-nitro-4^4-(oxetan-3-yl-methoxy)-6-oxa-3-diaza-2(4,2)-py-rimidina-1(1,4),4(1,3)-dibenzena-cyclododecaphan-12-one], for which the IC50 was 1000 to 10000 nM in test [1], 1000 to 10000 nM in test [2], 1000 to 10000 nM in test [3] and over 10000 nM in test [4].
Take `CC1CCNC(=O)c2ccc(c(N)c2)-c2ccnc(n2)Nc2ccc(OCC3COC3)c(c2)COC1` (stereo not shown) [Example 175]: the IC50 fell in the range of 11 to 100 nM in test [1], 101 to 1000 nM in test [2], 1000 to 10000 nM in test [3] and 1000 to 10000 nM in test [4].
With `CC1(C)CCNC(=O)c2ccc(c(N)c2)-c2ccnc(n2)Nc2ccc(OC3CC3)c(c2)COC1` [Example 176, 1^2-amino-4^4-cyclopropoxy-8,8-di-methyl-6-oxa-3,11-diaza-2(4,2)-py-rimidina-1(1,4),4(1,3)-dibenzena-cyclododecaphan-12-one], the IC50 is 1000 to 10000 nM in test [1], over 10000 nM in test [2], over 10000 nM in test [3] and over 10000 nM in test [4].

The values above are taken from US20230203059A1, “MACROCYCLIC JAK INHIBITOR AND USES THEREOF” (Biopolar Hongye (Guangdong) Pharmaceutical Co. Ltd., priority 2020, published 2023).
